14 compounds from ChEMBL document CHEMBL1126440, “Design and synthesis of azabicyclic muscarinic agonists incorporating an oxime ether functionality” (Bioorg Med Chem Lett, 1992) can be followed below.

For test [1], the target named is Muscarinic acetylcholine receptor (Rattus norvegicus) (UniProt P08482+P08483+P08485+P08911+P10980). In words: Relative affinity of oxotremorine-M (OXO-M) and [3H]quinuclidinyl benzilate (QNB) for muscarinic receptors. The format is protein assay.
The target in test [2] is Muscarinic acetylcholine receptor. In words: Displacement of [3H]quinuclidinyl benzilate(QNB) binding from muscarinic receptors of rat cerebral cortex; 36000-40000. The format is tissue-based. In general terms: Loss of bound radioactivity is the signal in a displacement assay; it reports binding, not function.
Test [3] has the same target. Put plainly: Displacement of [3H]- oxotremorine-M (OXO-M) binding from muscarinic receptors of rat cerebral cortex; 90-155. The format is tissue-based.
Test [4] shares this target. Put plainly: Displacement of [3H]quinuclidinyl benzilate(QNB) binding from muscarinic receptors of rat cerebral cortex; 12500-16500. The class given is tissue-based.
For test [5] the target is unchanged. Put plainly: Displacement of [3H]- oxotremorine-M (OXO-M) binding from muscarinic receptors of rat cerebral cortex; 50-65. The class given is tissue-based.
For test [6] the target is unchanged. Put plainly: Displacement of [3H]- oxotremorine-M (OXO-M) binding from muscarinic receptors of rat cerebral cortex; 205-310. The format is tissue-based.
Test [7] has the same target. In words: Displacement of [3H]quinuclidinyl benzilate(QNB) binding from muscarinic receptors of rat cerebral cortex. The format is tissue-based.
For test [8] the target is unchanged. Put plainly: Displacement of [3H]quinuclidinyl benzilate(QNB) binding from muscarinic receptors of rat cerebral cortex; 3400-8000. The format is tissue-based.
Test [9] has the same target. In words: Displacement of [3H]- oxotremorine-M (OXO-M) binding from muscarinic receptors of rat cerebral cortex; 155-265. The class given is tissue-based.
Test [10] relates to Rattus norvegicus. Put plainly: Dose required to produce a change in the mean power spectrum of EEG equivalent to that of a standard dose (0.32 mg/Kg i.v.) of arecoline after iv administration of compound. The class given is functional.
Test [11] deals with Rattus norvegicus. In words: Effective dose required to cause 50% fall in mean blood pressure (BP) […] of urethane anesthetized rats after iv administration of compound. The format is functional.
Test [12] in a line: Ratio of change in mean blood pressure (BP) to that of mean power spectrum of EEG. The format is functional.
Test [13] concerns the target Muscarinic acetylcholine receptor. In words: Displacement of [3H]quinuclidinyl benzilate(QNB) binding from muscarinic receptors of rat cerebral cortex; 1400-2700. The class given is tissue-based.
The target is the same in test [14]. In words: Displacement of [3H]- oxotremorine-M (OXO-M) binding from muscarinic receptors of rat cerebral cortex; 12-62. The class given is tissue-based.
The target is the same in test [15]. Put plainly: Displacement of [3H]quinuclidinyl benzilate(QNB) binding from muscarinic receptors of rat cerebral cortex; 2600-4400. The class given is tissue-based.
The target is the same in test [16]. Put plainly: Displacement of [3H]- oxotremorine-M (OXO-M) binding from muscarinic receptors of rat cerebral cortex; 44-48. The format is tissue-based.
The target is the same in test [17]. In words: Displacement of [3H]quinuclidinyl benzilate(QNB) binding from muscarinic receptors of rat cerebral cortex; 2000-4800. The class given is tissue-based.
Test [18] has the same target. In words: Displacement of [3H]- oxotremorine-M (OXO-M) binding from muscarinic receptors of rat cerebral cortex; 10-30. The class given is tissue-based.
The target is the same in test [19]. Put plainly: Displacement of [3H]- oxotremorine-M (OXO-M) binding from muscarinic receptors of rat cerebral cortex; 66-83. The format is tissue-based.
For test [20] the target is unchanged. In words: Displacement of [3H]quinuclidinyl benzilate(QNB) binding from muscarinic receptors of rat cerebral cortex; 1400-2900. The format is tissue-based.
Test [21] shares this target. In words: Displacement of [3H]- oxotremorine-M (OXO-M) binding from muscarinic receptors of rat cerebral cortex; 65-110. The format is tissue-based.
For test [22] the target is unchanged. Put plainly: Displacement of [3H]quinuclidinyl benzilate(QNB) binding from muscarinic receptors of rat cerebral cortex; 3400-10000. The format is tissue-based.
Test [23] has the same target. Put plainly: Displacement of [3H]quinuclidinyl benzilate(QNB) binding from muscarinic receptors of rat cerebral cortex; 4800-6300. The format is tissue-based.
The target is the same in test [24]. In words: Displacement of [3H]- oxotremorine-M (OXO-M) binding from muscarinic receptors of rat cerebral cortex; 44-170. The format is tissue-based.
Test [25] shares this target. In words: Displacement of [3H]- oxotremorine-M (OXO-M) binding from muscarinic receptors of rat cerebral cortex. The format is tissue-based.
The target is the same in test [26]. In words: Displacement of [3H]quinuclidinyl benzilate(QNB) binding from muscarinic receptors of rat cerebral cortex; 2500-5600. The format is tissue-based.
For test [27] the target is unchanged. Put plainly: Displacement of [3H]quinuclidinyl benzilate(QNB) binding from muscarinic receptors of rat cerebral cortex; 2700-3000. The format is tissue-based.
Test [28] has the same target. Put plainly: Displacement of [3H]- oxotremorine-M (OXO-M) binding from muscarinic receptors of rat cerebral cortex; 230-335. The format is tissue-based.
Test [29] has the same target. In words: Displacement of [3H]quinuclidinyl benzilate(QNB) binding from muscarinic receptors of rat cerebral cortex; 6200-9000. The format is tissue-based.
Test [30] has the same target. Put plainly: Displacement of [3H]- oxotremorine-M (OXO-M) binding from muscarinic receptors of rat cerebral cortex; 83-128. The format is tissue-based.

For orientation: IC50 means the concentration that gives 50% inhibition. A higher IC50 goes with lower potency. As a reminder, the ED50 is the dose at which the effect has come halfway, by size or by number of responders. A lower ED50 goes with greater potency.

Turning to `CO/N=C/C12CCN(CC1)C2`, the Ratio in [1] was 321. Also, the IC50 in test [2] amounted to 38 µM; in test [3], 0.118 µM.

With `CO/N=C(\C)C12CCN(CC1)C2`, the Ratio in test [1] worked out at 255. Further, the IC50 in test [4] stood at 14 µM; in [5] it was 0.055 µM.

As for `CCCCO/N=C/[C@H]1CN2CC[C@H]1C2`, the values for the IC50 in [6] and in [7] were 0.252 µM and 3.6 µM, respectively. For the same compound, the Ratio in test [1] turned out to be 14.

As for `CC/C(=N\OC)[C@H]1CN2CC[C@H]1C2`, the Ratio in test [1] is 25. The half-maximal inhibitory concentration (IC50) in [8] is 5.2 µM; in test [9], 0.208 µM.

As for `C#CCO/N=C/[C@H]1CN2CC[C@H]1C2`, the “ED Arec” value in the test with Rattus norvegicus [10] turned out to be 0.016 mg/kg. This compound also returned an ED50 in the test on Rattus norvegicus [11] of 0.17 mg/kg. Moreover, the Ratio in test [1] is 78; in test [12], 10.6. Also, the 50% inhibitory concentration (IC50) in [13] was 1.95 µM; in test [14] it was 0.025 µM.

Regarding `CO/N=C(\C)C12CCCN(CC1)C2` (stereo not drawn), the IC50 in test [15] worked out at 3.4 µM; in test [16], 0.046 µM. In [1], the Ratio is 74.

For the compound `CO/N=C/[C@H]1CN2CC[C@H]1C2`, the IC50 in [17] was found to be 3.1 µM; in test [18], 0.015 µM. Moreover, the “ED Arec” value in the test with Rattus norvegicus [10] was 0.0021 mg/kg. This compound also displayed an ED50 in the test on Rattus norvegicus [11] of 0.0031 mg/kg. In addition, the Ratio in test [12] worked out at 1.5.

As to `CO/N=C(\C)C1CN2CCC1CC2` (stereo not drawn), the IC50 amounted to 0.069 µM in test [19] and 2 µM in test [20]. Besides, the Ratio in test [1] stood at 29.

`CO/N=C/C1CN2CCC1CC2` (stereo not drawn): the IC50 in test [21] was 0.095 µM; in [22], 5.8 µM. Further, the Ratio in test [1] stood at 61.

On to `CO/N=C/C12CCCN(CC1)C2` (stereo not drawn), for which the results for the IC50 in test [23] and in [24] were 5.2 µM and 0.06 µM, respectively. In addition, the Ratio in [1] was 87.

For the compound `CCO/N=C/[C@H]1CN2CC[C@H]1C2`, the IC50 is 0.16 µM in test [25] and 3.7 µM in test [26]. For the same compound, in the test with Rattus norvegicus [10], the “ED Arec” value is 0.23 mg/kg. In addition, the ED50 in the test on Rattus norvegicus [11] is above 1.8 mg/kg. Besides, the Ratio in test [1] was 23; in [12], above 7.8.

For the compound `COC(=O)C1CN2CCC1CC2` (stereo not drawn), in test [1], the Ratio was 48.

For the compound `CCCO/N=C/[C@H]1CN2CC[C@H]1C2`, the Ratio in [1] turned out to be 10. Moreover, the IC50 is 2.9 µM in test [27] and 0.278 µM in test [28].

As to `CO/N=C(\C)[C@H]1CN2CC[C@H]1C2`, in test [1], the Ratio was 76. Also, the IC50 in test [29] is 7.5 µM; in test [30] it was 0.099 µM.
